Results reported in PubChem BioAssay AID651630 (Sanford-Burnham Center for Chemical Genomics, 2012).
Active and inactive are the calls of the source.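 How the source made its calls: active means lipid-stain IC50 at or below a set limit, with nuclear-stain toxicity IC50 at least five times higher; inactive means the rest.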

What was measured:
TAG = TAG lipid buildup inhibition with viability readout – cell-based, panel, Nile Red and DAPI fluorescence, H9c2, dose response (AID 651630); conditions: H9c2 cells, Nile Red TAG fluorescence, oleic acid;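 further: cells exposed to compound overnight before fixation and staining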
DAPI = experiment: as above; conditions: H9c2 cells, DAPI nuclear fluorescence (cytotoxicity counter-readout), oleic acid

| Compound | IC50 (TAG; mean of runs) | IC50 (TAG; run 1) [µM] | IC50 (TAG; run 2) [µM] | IC50 cytotoxicity (DAPI nuclear signal decrease) (DAPI; mean of runs) | IC50 cytotoxicity (DAPI nuclear signal decrease) (DAPI; run 1) [µM] | IC50 cytotoxicity (DAPI nuclear signal decrease) (DAPI; run 2) [µM] |
| --- | --- | --- | --- | --- | --- | --- |
| CC(C)C[C@@H](CN1CCCC1CN1C(=S)NC[C@@H]1Cc1ccc(O)cc1)N1C[C@H](Cc2ccccc2)N(CC2CCCCC2)C1=S (stereo not given in full) | > 25 µM (inactive) | > 25 | > 25 | 21.8 µM (inactive) | 21.7 | 21.8 |
| Cc1ccc(-n2nc(C)c3c(C)c(CCC(=O)Nc4ccc(CN5CCCC5)cc4)c(C)nc32)cc1 | – | 20.6 | > 25 | > 25 µM (inactive) | > 25 | > 25 |
| Nc1c(C(=O)NCc2ccccc2)sc2nc(N3CCOCC3)c3c(c12)CCCC3 | > 25 µM (inactive) | > 25 | > 25 | > 25 µM (inactive) | > 25 | > 25 |
| COc1ccc(NS(=O)(=O)c2cc(C)ccc2NC(=O)c2cc(C)oc2C)cc1 | 8.59 µM | 9.83 | 7.35 | > 25 µM (inactive) | > 25 | > 25 |
| Cc1onc(-c2ccc(Cl)cc2Cl)c1-c1csc(N/N=C/c2ccccc2)n1 | > 25 µM (inactive) | > 25 | > 25 | > 25 µM (inactive) | > 25 | > 25 |
| Oc1ccc(C[C@H]2CNC(=S)N2CC2CCCN2C[C@H](Cc2ccc(O)cc2)N2C[C@H](Cc3ccc(O)cc3)N(CC3CCCCC3)C2=S)cc1 (stereo not given in full) | 9.34 µM | 8.74 | 9.95 | > 25 µM (inactive) | > 25 | > 25 |
| Cc1cccc(-c2ccc3[nH]c4c(c3c2)CCN2C[C@@H]([C@H](C)O)[C@@H](N(C)C(=O)Nc3ccc(F)cc3)C[C@@H]42)c1 | – | 18 | > 25 | > 25 µM (inactive) | > 25 | > 25 |
| CCN(CC)c1ccc(/C=C2\CCC(/C=C(/C#N)C(=O)Nc3ccccc3F)=C2N2CCOCC2)cc1 | < 0.78 µM | < 0.78 | < 0.78 | – | > 25 | > 25 |
| Cc1cc(NC(=O)CC2CCCC2)n(-c2nc3ccccc3[nH]2)n1 | – | > 25 | 11.2 | > 25 µM (inactive) | > 25 | > 25 |
| CC(C)CCNCC(O)CON=C1c2ccccc2-c2ccccc21 (stereo not given) | > 25 µM (inactive) | > 25 | > 25 | > 25 µM (inactive) | > 25 | > 25 |
| CN(C)CCNC=C(C(=O)Nc1ccc(Cl)cc1Cl)C(=O)Nc1ccc(Cl)cc1Cl | 8.69 µM | 8.01 | 9.36 | – | 20.8 | > 25 |
| CCOC(=O)c1sc2nc(CSc3ccccc3)nc(NCCN(C)C)c2c1C | 13.7 µM | 12.4 | 14.9 | > 25 µM (inactive) | > 25 | > 25 |
| COc1ccc2c(c1)c(CC(=O)Nc1ccc(C)cc1)c(C)n2C(=O)c1ccc(Cl)cc1 | – | 20.1 | > 25 | > 25 µM (inactive) | > 25 | > 25 |
| C#CCN(C[C@@H]1[C@@H](OC(=O)NCc2ccco2)[C@@H](OC(=O)NCc2ccco2)CN(C(=O)OC(C)C)N1C(=O)OC(C)C)S(=O)(=O)c1ccc(C)cc1 | 15.1 µM (inactive) | 16.2 | 14 | – | 16.5 | > 25 |
| COc1ccc(NC(=O)c2nc(C)c(C3(C)CC(c4ccccc4)=NO3)s2)cc1 (stereo not given) | 7.56 µM | 4.88 | 10.2 | > 25 µM (inactive) | > 25 | > 25 |
| CCOc1ccc(CCNC(=O)CCc2nc(-c3ccc(C)cc3)no2)cc1OCC | > 25 µM (inactive) | > 25 | > 25 | > 25 µM (inactive) | > 25 | > 25 |
| CCOC(=O)N1CCN(C(=O)c2ccccc2N(Cc2ccccc2)S(=O)(=O)c2ccc(OC)cc2)CC1 | 19.9 µM (inactive) | 24.3 | 15.5 | > 25 µM (inactive) | > 25 | > 25 |
| CCOc1cc(CNc2ccc3c(c2)OCCO3)cc(Br)c1OCC | > 25 µM (inactive) | > 25 | > 25 | > 25 µM (inactive) | > 25 | > 25 |
| CSC1=NC(C(Cl)(Cl)Cl)N=C(c2ccc(C)cc2)N1 (stereo not given) | > 25 µM (inactive) | > 25 | > 25 | > 25 µM (inactive) | > 25 | > 25 |
| Cc1cc(N2CCOCC2)n2nc(C)c(-c3ccccc3)c2n1 | – | 14.6 | > 25 | > 25 µM (inactive) | > 25 | > 25 |
| CC1(C(=O)NCc2ccco2)Cc2c(-c3cccc(C(F)(F)F)c3)ccnc2O1 (stereo not given) | > 25 µM (inactive) | > 25 | > 25 | > 25 µM (inactive) | > 25 | > 25 |
| CCC(=O)Nc1nonc1-c1nc2ccccc2n1Cc1cccc2ccccc12 | > 25 µM (inactive) | > 25 | > 25 | > 25 µM (inactive) | > 25 | > 25 |
| O=C(Nc1cccc(-c2csc(Nc3ccc(Cl)cc3)n2)c1)c1cccc(C(F)(F)F)c1 | 15.2 µM (inactive) | 13.6 | 16.7 | > 25 µM (inactive) | > 25 | > 25 |
| CCCC[C@H](CN[C@@H](CNC)[C@H](C)CC)NCCC12CCC(CC1)C2 | > 25 µM (inactive) | > 25 | > 25 | – | 17.8 | > 25 |
